Source: patent US8557738B2, “Nitrogen-containing heterocyclic derivative and fungicide for agricultural and horticultural use” (Nippon Soda Co., Ltd., priority 2008, dated 2013)
Where two headings read alike, the source gives them in different places.

Legend:
[1] = test system: apple scab pathogen (Venturia inaequalis); assay: Apple scab control test; type: in vivo; details: 336 h, read-out: control value
[2] = test system: cucumber gray mold pathogen (Botrytis cinerea); assay: Cucumber gray mold control test; type: in vivo; details: 96 h, read-out: control value
[3] = emulsion sprayed at 100 ppm active ingredient onto apple seedlings (Ralls Janet), lesions on leaves after 2 weeks vs untreated
[4] = emulsion sprayed at 100 ppm active ingredient onto cucumber seedlings (Sagami Hanjiro), lesions on leaves after 4 days vs untreated

Row | melting point | SMILES | pest or weed control at 100 ppm [1, 3] | pest or weed control at 100 ppm [2, 4] | other results
1 | – | CC1(C)CN=C(c2cnc3sccc3c2)c2cccc(Cl)c2O1 [A1-20, 9-Chloro-2,2-dimethyl-5-(thieno[2,3-b]pyridin-5-yl)-2,3-dihydro-benzo[f][1,4]oxazepine] | ≥ 75% | – | –
2 | 109 to 112 °C | CC1(C)COc2ccccc2C(c2cnc3ccccc3c2)=N1 [B1-3, 3,3-Dimethyl-5-(3-quinolinyl)-2,3-dihydro-benzo[f][1,4]oxazepine] | ≥ 75% | ≥ 75% | –
3 | – | CC1(C)CN=C(c2cnc3ccccc3c2)c2ccccc2O1 [B1-9, 2,2-Dimethyl-5-(3-quinolinyl)-2,3-dihydro-benzo[f][1,4]oxazepine] | ≥ 75% | ≥ 75% | –
4 | – | CC1(C(F)(F)F)CN=C(c2cnc3ccccc3c2)c2ccccc2O1 (stereo not shown) [B1-51, 2-Methyl-5-quinolin-3-yl-2-trifluoromethyl-2,3-dihydro-benzo[f][1,4]oxazepine] | ≥ 75% | – | –
5 | – | CC1(Cc2ccc(F)cc2)CN=C(c2cnc3ccccc3c2)c2ccccc2O1 (stereo not shown) [B1-53, 2-(4-Fluorobenzyl)-2-methyl-5-quinolin-3-yl-2,3-dihydro-benzo[f][1,4]oxazepine] | ≥ 75% | – | –
6 | – | CC1(C)CN=C(c2cnc3ccccc3c2)c2cccc(C#N)c2O1 [B1-54, 2,2-Dimethyl-5-quinolin-3-yl-2,3-dihydro-benzo[f][1,4]oxazepine-9-carbonitrile] | ≥ 75% | – | –
7 | 103 to 105 °C | CC1(C(F)(F)F)CN=C(c2cnc3c(F)cccc3c2)c2ccccc2O1 (stereo not shown) [B1-56, 5-(8-Fluoro-quinolin-3-yl)-2-methyl-2-trifluoromethyl-2,3-dihydro-benzo[f][1,4]oxazepine] | ≥ 75% | – | –
8 | – | CC1(C2CC2)CN=C(c2cnc3ccccc3c2)c2ccccc2O1 (stereo not shown) [B1-70, 2-Cyclopropyl-2-methyl-5-quinolin-3-yl-2,3-dihydro-benzo[f][1,4]oxazepine] | ≥ 75% | ≥ 75% | –
9 | 102 to 104 °C | c1ccc2c(c1)OC1(CC1)CN=C2c1cnc2ccccc2c1 [B1-72, 5-Quinolin-3-yl-2,3-dihydro-benzo[f][1,4]oxazepine-2-spiro-cyclopropane] | – | ≥ 75% | –
10 | – | CC1(C)CN=C(c2cnc3ccccc3c2)c2cccc(Cc3ccccc3)c2O1 [B1-74, 9-Benzyl-2,2-dimethyl-5-quinolin-3-yl-2,3-dihydro-benzo[f][1,4]oxazepine] | – | ≥ 75% | –
11 | – | CC1(C)CN=C(c2cnc3ccccc3c2)c2cc(Cl)ccc2O1 [B1-77, 7-Chloro-2,2-dimethyl-5-quinolin-3-yl-2,3-dihydro-benzo[f][1,4]oxazepine] | – | ≥ 75% | –
12 | 151 to 153 °C | Cc1cccc2c1OC(C)(C)CN=C2c1cnc2c(F)cccc2c1 [B1-79, 5-(8-Fluoro-quinolin-3-yl)-2,2,9-trimethyl-2,3-dihydro-benzo[f][1,4]oxazepine] | ≥ 75% | ≥ 75% | –
13 | – | CC1(C)CN=C(c2cnc3ccccc3c2)c2cccc(Oc3ccccc3)c2O1 [B1-82, 2,2-Dimethyl-9-phenoxy-5-quinolin-3-yl-2,3-dihydro-benzo[f][1,4]oxazepine] | ≥ 75% | ≥ 75% | –
14 | 169 to 170 °C | O=C1COc2ccccc2C(c2cnc3ccccc3c2)=N1 [B1-84, 5-Quinolin-3-yl-benzo[f][1,4]oxazepin-3-one] | – | ≥ 75% | –
15 | – | CC1(C)CN=C(c2cnc3ccccc3c2)c2ccccc2S1 [B2-6, 2,2-Dimethyl-5-(3-quinolinyl)-2,3-dihydro-benzo[f][1,4]thiazepine] | ≥ 75% | ≥ 75% | –
16 | 138 to 141 °C | CC1(C)CN(Cc2ccccc2)C(c2cnc3c(F)cccc3c2)c2cccc(Cl)c2O1 (stereo not shown) [B4-50, 4-Benzyl-9-chloro-5-(8-fluoro-quinolin-3-yl)-2,2-dimethyl-2,3,4,5-tetrahydro-benzo[f][1,4]oxazepine] | – | ≥ 75% | –
17 | 131 to 133 °C | CC1(C)CN(C=O)C(c2cnc3c(F)cccc3c2)c2cccc(F)c2O1 (stereo not shown) [B4-51, 9-Fluoro-5-(8-fluoro-quinolin-3-yl)-2,2-dimethyl-2,3-dihydro-5H-benzo[f][1,4]oxazepine-4-carbaldehyde] | – | – | –
18 | 132 to 134 °C | CC(=O)N1CC(C)(C)Oc2c(F)cccc2C1c1cnc2c(F)cccc2c1 (stereo not shown) [B4-52, 1-[9-Fluoro-5-(8-fluoro-quinolin-3-yl)-2,2-dimethyl-2,3-dihydro-5H-benzo[f][1,4]oxazepin-4-yl]-ethanone] | – | – | –
19 | 225 to 227 °C | CC1(C)Oc2ccccc2C(c2cnc3ccccc3c2)NC1=O (stereo not shown) [B4-53, 2,2-Dimethyl-5-quinolin-3-yl-4,5-dihydro-benzo[f][1,4]oxazepin-3-one] | – | – | –
20 | – | CC1(C)C[N+]([O-])=C(c2cnc3c(F)cccc3c2)c2ccccc2O1 [B5-34, 5-(8-Fluoro-quinolin-3-yl)-2,2-dimethyl-2,3-dihydro-benzo[f][1,4]oxazepine 4-oxide] | ≥ 75% | ≥ 75% | –
21 | – | CC1(C)CN2OC2(c2cnc3c(F)cccc3c2)c2ccccc2O1 (stereo not shown) [B6-34, 8b-(8-Fluoro-quinolin-3-yl)-3,3-dimethyl-2,3-dihydro-8bH-1,4-dioxa-1a-aza-benzo[a]cyclopropa[c]cycloheptene] | – | – | pest or weed control at 100 ppm [2]: ≥ 75%; pest or weed control at 100 ppm [1]: ≥ 75%

Row | SMILES | melting point | pest or weed control at 100 ppm [1, 3] | pest or weed control at 100 ppm [2, 4] | other results
22 | c1ccc2c(c1)OCCN=C2c1cnc2ccccc2c1 [B1-1, 5-(3-Quinolinyl)-2,3-dihydro-benzo[f][1,4]oxazepine] | 115 to 117 °C | ≥ 75% | – | –
